# In patent publication US12180193B2, “Accelerating fibrosarcoma protein degrading compounds and associated methods of use” (Arvinas Operations, Inc., priority 2020, dated 2024):
# Legend:
# BRAF V600E = molecular target: T1, BRAF V600E (Homo sapiens, UniProt P15056, V600E); test: Cellular assay of target protein degradation, T-Rex 293 cells stably transfected with HA-BRAF_V600E (HA immunofluorescence, high content imaging); assay type: cell-based; settings: T-Rex 293 HA-BRAF V600E; for DC50: half maximal degradation, read-out: BRaf V600E DC50; for Dmax: maximum degradation observed
# T1 construct: expressed in transfected cells
# T1 sequence (P15056 whole entry V600E): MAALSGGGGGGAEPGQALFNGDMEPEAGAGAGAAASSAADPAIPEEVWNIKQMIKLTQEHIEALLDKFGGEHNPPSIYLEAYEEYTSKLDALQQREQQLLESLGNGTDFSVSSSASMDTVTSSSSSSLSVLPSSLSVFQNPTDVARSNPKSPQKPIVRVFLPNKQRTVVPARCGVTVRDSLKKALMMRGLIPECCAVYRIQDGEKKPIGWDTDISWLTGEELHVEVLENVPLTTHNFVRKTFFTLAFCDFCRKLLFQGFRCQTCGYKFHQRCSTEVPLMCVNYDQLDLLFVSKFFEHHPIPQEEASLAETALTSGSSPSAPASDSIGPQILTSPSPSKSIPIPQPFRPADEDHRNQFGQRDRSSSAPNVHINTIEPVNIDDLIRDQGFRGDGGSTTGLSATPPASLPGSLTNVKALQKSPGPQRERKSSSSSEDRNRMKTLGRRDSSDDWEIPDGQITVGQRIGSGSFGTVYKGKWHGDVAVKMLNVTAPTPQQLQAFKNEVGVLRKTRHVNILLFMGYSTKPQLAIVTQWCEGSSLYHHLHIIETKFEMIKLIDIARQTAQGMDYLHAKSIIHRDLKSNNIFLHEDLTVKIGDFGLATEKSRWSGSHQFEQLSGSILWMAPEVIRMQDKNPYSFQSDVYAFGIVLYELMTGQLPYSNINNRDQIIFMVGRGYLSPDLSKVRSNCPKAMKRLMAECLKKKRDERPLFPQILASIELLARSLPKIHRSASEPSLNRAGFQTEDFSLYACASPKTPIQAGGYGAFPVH
# In short: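 HA immunofluorescence on fixed cells, imaged by high-content reader, measured loss of HA-BRAF V600E in stably transfected T-Rex 293 cells induced with 1 ng/mL doxycycline. Compounds were applied for 24 h at 37 °C (final 0.1 nM–1 μM, 0.1% DMSO); DC50 and Dmax (% of control) were reported.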
# BRAF G466V = molecular target: T2, BRAF G466V (Homo sapiens, UniProt P15056, G466V); test: Cellular assay of target protein degradation, T-Rex 293 cells stably transfected with HA-BRAF G466V (HA immunofluorescence, high content imaging); assay type: cell-based; settings: T-Rex 293 HA-BRAF G466V; for DC50: half maximal degradation, read-out: BRaf G466V DC50; for Dmax: maximum degradation observed
# T2 construct: expressed in transfected cells
# T2 sequence (P15056 whole entry G466V): as the sequence (P15056 whole entry V600E) above, with G466V, E600V counted along it
# In short: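 HA-BRAF G466V levels were read by HA immunofluorescence and high-content imaging after 24 h compound exposure (final 30 nM–3 pM, 0.1% DMSO, 37 °C). Expression was induced with 0.75 ng/mL doxycycline. Outputs: half-maximal degradation concentration (DC50) and maximal degradation (Dmax) relative to control.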
Structure (SMILES),DC50 (BRAF V600E) [nM],Dmax (BRAF V600E) [%],DC50 (BRAF G466V) [nM],Dmax (BRAF G466V) [%]
"COc1cc(N2CCC(CN3CC4(C3)CN(c3ccc(-c5cnc6[nH]cc(C(=O)c7c(F)ccc(NS(=O)(=O)N8CC[C@@H](F)C8)c7F)c6c5)cc3)C4)CC2)cc2c1C(=O)N([C@H]1CCC(=O)NC1=O)C2 [Compound 226, (3R)-N-{3-[5-(4-{6-[(1-{2-[(3S)-2,6-dioxopiperidin-3-yl]-7-methoxy-1-oxo-2,3-dihydro-1H-isoindol-5-yl}piperidin-4-yl)methyl]-2,6-diazaspiro[3.3]heptan-2-yl}phenyl)-1H-pyrrolo[2,3-b]pyridine-3-carbonyl]-2,4-difluorophenyl}-3-fluoropyrrolidine-1-sulfonamide]",5 to 50,< 35,1 to 10,> 70
"O=C1CCC(N2Cc3cc(N4CC(C5CN(CC6CCN(c7ccc(-c8cnc9[nH]cc(C(=O)c%10c(F)ccc(NS(=O)(=O)N%11CC[C@@H](F)C%11)c%10F)c9c8)cc7)CC6)C5)C4)ccc3C2=O)C(=O)N1 (stereo partly drawn) [Compound 227, (3R)-N-[3-(5-{4-[4-({1′-[2-(2,6-dioxopiperidin-3-yl)-1-oxo-2,3-dihydro-1H-isoindol-5-yl]-[3,3′-biazetidin]-1-yl}methyl)piperidin-1-yl]phenyl}-1H-pyrrolo[2,3-b]pyridine-3-carbonyl)-2,4-difluorophenyl]-3-fluoropyrrolidine-1-sulfonamide]",5 to 50,< 35,1 to 10,> 70
"O=C1CC[C@H](N2Cc3cc(C4CCN(CC5CCN(c6ccc(-c7cnc8[nH]cc(C(=O)c9c(F)ccc(NS(=O)(=O)N%10CCCC%10)c9F)c8c7)cc6)CC5)CC4)ccc3C2=O)C(=O)N1 [Compound 230, N-{3-[5-(4-{4-[(4-{2-[(3S)-2,6-dioxopiperidin-3-yl]-1-oxo-2,3-dihydro-1H-isoindol-5-yl}piperidin-1-yl)methyl]piperidin-1-yl}phenyl)-1H-pyrrolo[2,3-b]pyridine-3-carbonyl]-2,4-difluorophenyl}pyrrolidine-1-sulfonamide]",5 to 50,35 to 70,< 1,> 70
"O=C1CC[C@@H](N2Cc3cc(C4CCN(CC5CCN(c6ccc(-c7cnc8[nH]cc(C(=O)c9c(F)ccc(NS(=O)(=O)N%10CCCC%10)c9F)c8c7)cc6)CC5)CC4)ccc3C2=O)C(=O)N1 [Compound 231, N-{3-[5-(4-{4-[(4-{2-[(3R)-2,6-dioxopiperidin-3-yl]-1-oxo-2,3-dihydro-1H-isoindol-5-yl}piperidin-1-yl)methyl]piperidin-1-yl}phenyl)-1H-pyrrolo[2,3-b]pyridine-3-carbonyl]-2,4-difluorophenyl}pyrrolidine-1-sulfonamide]",5 to 50,35 to 70,1 to 10,> 70
"O=C1CC[C@H](N2Cc3cc(C4CCN(CC5CCN(c6ccc(-c7cnc8[nH]cc(C(=O)c9c(F)ccc(NS(=O)(=O)N%10CCC(F)(F)C%10)c9F)c8c7)cc6)CC5)CC4)ccc3C2=O)C(=O)N1 [Compound 232, N-{3-[5-(4-{4-[(4-{2-[(3S)-2,6-dioxopiperidin-3-yl]-1-oxo-2,3-dihydro-1H-isoindol-5-yl}piperidin-1-yl)methyl]piperidin-1-yl}phenyl)-1H-pyrrolo[2,3-b]pyridine-3-carbonyl]-2,4-difluorophenyl}-3,3-difluoropyrrolidine-1-sulfonamide]",5 to 50,35 to 70,1 to 10,> 70
"O=C1CC[C@@H](N2Cc3cc(C4CCN(CC5CCN(c6ccc(-c7cnc8[nH]cc(C(=O)c9c(F)ccc(NS(=O)(=O)N%10CCC(F)(F)C%10)c9F)c8c7)cc6)CC5)CC4)ccc3C2=O)C(=O)N1 [Compound 233, N-{3-[5-(4-{4-[(4-{2-[(3R)-2,6-dioxopiperidin-3-yl]-1-oxo-2,3-dihydro-1H-isoindol-5-yl}piperidin-1-yl)methyl]piperidin-1-yl}phenyl)-1H-pyrrolo[2,3-b]pyridine-3-carbonyl]-2,4-difluorophenyl}-3,3-difluoropyrrolidine-1-sulfonamide]",5 to 50,35 to 70,1 to 10,> 70
"CCCS(=O)(=O)Nc1ccc(F)c(C(=O)c2c[nH]c3ncc(-c4ccc(N5CCC(CN6CCC(c7ccc8c(c7)CN([C@H]7CCC(=O)NC7=O)C8=O)CC6)CC5)cc4)cc23)c1F [Compound 234, N-{3-[5-(4-{4-[(4-{2-[(3S)-2,6-dioxopiperidin-3-yl]-1-oxo-2,3-dihydro-1H-isoindol-5-yl}piperidin-1-yl)methyl]piperidin-1-yl}phenyl)-1H-pyrrolo[2,3-b]pyridine-3-carbonyl]-2,4-difluorophenyl}propane-1-sulfonamide]",5 to 50,35 to 70,< 1,> 70

# Other lines, results leading:
DC50 (BRAF V600E) [nM],Dmax (BRAF V600E) [%],DC50 (BRAF G466V) [nM],Dmax (BRAF G466V) [%],Structure (SMILES)
5 to 50,35 to 70,< 1,> 70,"CCCS(=O)(=O)Nc1ccc(F)c(C(=O)c2c[nH]c3ncc(-c4ccc(N5CCC(CN6CC7(C6)CN(c6ccc8c(c6)CN([C@H]6CCC(=O)NC6=O)C8=O)C7)CC5)cc4)cc23)c1F [Compound 228, N-{3-[5-(4-{4-[(6-{2-[(3S)-2,6-dioxopiperidin-3-yl]-1-oxo-2,3-dihydro-1H-isoindol-5-yl}-2,6-diazaspiro[3.3]heptan-2-yl)methyl]piperidin-1-yl}phenyl)-1H-pyrrolo [2,3-b]pyridine-3-carbonyl]-2,4-difluorophenyl} propane-1-sulfonamide]"
5 to 50,35 to 70,1 to 10,> 70,"CCCS(=O)(=O)Nc1ccc(F)c(C(=O)c2c[nH]c3ncc(-c4ccc(N5CCC(CN6CC7(C6)CN(c6ccc8c(c6)CN([C@@H]6CCC(=O)NC6=O)C8=O)C7)CC5)cc4)cc23)c1F [Compound 229, N-{3-[5-(4-{4-[(6-{2-[(3R)-2,6-dioxopiperidin-3-yl]-1-oxo-2,3-dihydro-1H-isoindol-5-yl}-2,6-diazaspiro[3.3]heptan-2-yl)methyl]piperidin-1-yl}phenyl)-1H-pyrrolo [2,3-b]pyridine-3-carbonyl]-2,4-difluorophenyl} propane-1-sulfonamide]"
5 to 50,35 to 70,1 to 10,> 70,"CCCS(=O)(=O)Nc1ccc(F)c(C(=O)c2c[nH]c3ncc(-c4ccc(N5CCC(CN6CCC(c7ccc8c(c7)CN([C@@H]7CCC(=O)NC7=O)C8=O)CC6)CC5)cc4)cc23)c1F [Compound 235, N-{3-[5-(4-{4-[(4-{2-[(3R)-2,6-dioxopiperidin-3-yl]-1-oxo-2,3-dihydro-1H-isoindol-5-yl}piperidin-1-yl)methyl]piperidin-1-yl}phenyl)-1H-pyrrolo[2,3-b]pyridine-3-carbonyl]-2,4-difluorophenyl}propane-1-sulfonamide]"
5 to 50,35 to 70,< 1,> 70,"CCCS(=O)(=O)Nc1ccc(F)c(C(=O)c2c[nH]c3ncc(-c4ccc(N5CCC(CN6CCC(c7ccc8c(c7)CN(C7CCC(=O)NC7=O)C8=O)CC6)CC5)cc4)cc23)c1F (centres unmarked) [Compound 236, N-[3-(5-{4-[4-({4-[2-(2,6-dioxopiperidin-3-yl)-1-oxo-2,3-dihydro-1H-isoindol-5-yl]piperidin-1-yl}methyl)piperidin-1-yl]phenyl}-1H-pyrrolo[2,3-b]pyridine-3-carbonyl)-2,4-difluorophenyl]propane-1-sulfonamide]"
